Patent US12383624B2, “Cargo delivery system and composition comprising the same” (SEOUL NATIONAL UNIVERSITY R&DB FOUNDATION, priority 2018, dated 2025)

Tested on: Bcl-2
Test: target protein degradation by immunoblotting (Experimental Example 6)
Format: cell-based, human
Conditions: HEK293T cell line, 24 hours
Experimental: In order to evaluate the target proteion degradation efficacy by Examples 14 to 33 according the disclosure, the following experiment was conducted.
First, as cell lines primarily expressing the target protein, Human kidney-derived cancer cells, HEK293T (ATCC, CRL-3216), human prostate-derived cancer cells, LNcap (Korean Cell Line Bank, Korean Cell Line Research Foundation, KCLB No. 80018), mouse embryonic fibroblast, MEF (ATCC, SCRC-1008), human cervical cancer cells, HeLa (Korean Cell Line Bank, Korean Cell Line Research Foundation, KCLB No. 10002), human blood-derived cells, K562 (Korean Cell Line Bank, Korean Cell Line Research Foundation, KCLB No. 10243), human blood-derived cells, THP-1 (Korean Cell Line Bank, Korean Cell Line Research Foundation, KCLB No. 40202), human lung-derived cancer cells, A549 (Korean Cell Line Bank, Korean Cell Line Research Foundation, KCLB No. 10185), human breast-derived cancer cells, MCF7 (Korean Cell Line Bank, Korean Cell Line Research Foundation, KCLB No. 30022), human neuroblastoma, SH-SY5Y cell lines (Korean Cell Line Bank, Korean Cell Line Research Foundation, KCLB No. 22266), human pancreatic cancer cells, PANC-1 (Korean Cell Line Bank, Korean Cell Line Research Foundation, KCLB No. 21469) were cultured, respectively, in an incubator maintained at 5% carbon dioxide, using DMEM containing 10% FBS and 1% streptomycin/penicillin, RPMI1640, or MEM medium, and then the respective cells were dispensed in 12-well plate. Additional incubation was performed for 24 hours to ensure that each cell completely fixed to the surface of the plate.
In order to confirm whether Compounds A to W of Examples 14 to 33 degrade the target protein respectively, the cultured cells were treated with the compound of each example for 24 hours and then collected.
In this case, HEK293T, which is human kidney-derived cancer cells, LNcap, which is human prostate-derived cancer cells, and MEF cell line, which is mouse embryonic fibroblasts, were treated with Example 14 (Compound A). HEK293T, which is human kidney-derived cancer cells, was treated with Example 15 (Compound B). HEK293T cell line, which is human kidney-derived cancer cells, and HeLa cell line, which is cervical-derived cancer cells, were treated with Example 16 (Compound C). HEK293T cell line, which is human kidney-derived cancer cells, was treated with Example 17 (Compound D). K562 cell line, which is human blood-derived cells, was treated with Example 18 (Compound E). HEK293T cell line, which is human kidney-derived cancer cells, was treated with Example 19 (Compound F). THP-1 cell line, which is human blood-derived cells, was treated with Example 20 (Compound G). A549 cell line, which is human lung-derived cancer cells, was treated with Example 21 (Compound H). A549 cell line, which is human lung-derived cancer cells, was treated with Example 22 (Compound I). MCF7 cell line, which is human breast-derived cancer cells, was treated with Example 23 (Compound J). HEK293T cell line, which is […], was treated with Example 24 (Compound L). SH-SY5Y, which is human neuroblastoma, and HeLa cell line, which is cervical-derived cancer cells, were treated with Example 25 (Compound M). THP-1 cell line, which is human blood-derived cells, was treated with Example 26 (Compound P). SH-SY5Y, which is human neuroblastoma, and HeLa cell line, which is cervical-derived cancer cells, were treated with Example 27 (Compound Q). SH-SY5Y, which is human neuroblastoma, and HeLa cell line, which is cervical-derived cancer cells, were treated with Example 28 (Compound R). HeLa cell line, a human cervical-derived cancer cell, was treated with Example 29 (Compound S). SH-SY5Y cell line, which is human neuroblastoma, was treated with Example 30 (Compound T). SH-SY5Y cell line, which is human neuroblastoma, was treated with Example 31 (Compound U). PANC-1 cell line, which is human pancreatic-derived cancer cells, was treated with Example 32 (Compound V). […]

For `O=C(O)c1ccc2c(c1)nc(Nc1cc(Cl)cc(NCCOCCOCCOCCOCCOCCNC[C@@H](O)COc3ccc(OCc4ccc(F)cc4)c(OCc4ccc(F)cc4)c3)c1)c1ccncc12` [Example 24, (R)-5-((3-((21-(3,4-bis((4-fluorobenzyl)oxy)phenoxy)-20-hydroxy-3,6,9,12,15-pentaoxa-18-azahenicosyl)amino)-5-chlorophenyl)amino)benzo[c][2,6]naphthyridine-8-carboxylic acid], the “degradation of target protein Bcl-2 (decrease in level vs Control)” value was “can be degraded”.
